Key:
[1] = Neurotoxicity in Albino Swiss CD-1 mouse assessed as motor impairment at 20 mg/kg, ip measured for 1 min at 6 to 24 rpm by rotarod test; assay type: toxicity, organism-based; conditions: in vivo
Mus musculus [2] = experiment: Analgesic activity in formalin-induced nociception Albino Swiss CD-1 mouse model assessed as time spent on licking formalin injected hind paw during neurogenic phase at 10 mg/kg, ip pretreated for 30 mins followed by formalin induction measured up to 5 mins (reference value: 60.23 +/- 5.12 s); assay type: functional
[3] = Acute toxicity in ip dosed Albino Swiss CD-1 mouse measured for 24 hrs; assay type: organism-based; conditions: in vivo
Mus musculus [4] = experiment: Analgesic activity in formalin-induced nociception Albino Swiss CD-1 mouse model assessed as time spent on licking formalin injected hind paw during neurogenic phase at 5 mg/kg, ip pretreated for 30 mins followed by formalin induction measured up to 5 mins (reference value: 60.23 +/- 5.12 s); assay type: functional
Mus musculus [5] = experiment: Analgesic activity in formalin-induced nociception Albino Swiss CD-1 mouse model assessed as time spent on licking formalin injected hind paw during neurogenic phase at 20 mg/kg, ip pretreated for 30 mins followed by formalin induction measured up to 5 mins (reference value: 60.23 +/- 5.12 s); assay type: functional
Mus musculus [6] = experiment: Potency index, ratio of piroxicam ED50 to test compound ED50 for analgesic activity in ip dosed formalin-induced nociception Albino Swiss CD-1 mouse model assessed as reduction in time spent on licking formalin injected hind paw during inflammatory phase; assay type: functional
Mus musculus [7] = experiment: Analgesic activity in ip dosed formalin-induced nociception Albino Swiss CD-1 mouse model assessed as reduction in time spent on licking formalin injected hind paw during inflammatory phase pretreated for 30 mins followed by formalin induction measured after 15 to 30 mins; assay type: functional; conditions: Swiss CD-1, ip
Mus musculus [8] = experiment: Analgesic activity in formalin-induced nociception Albino Swiss CD-1 mouse model assessed as time spent on licking formalin injected hind paw during inflammatory phase at 10 mg/kg, ip pretreated for 30 mins followed by formalin induction measured after 15 to 30 mins (reference value: 138.5 +/- 8.55 s); assay type: functional
Mus musculus [9] = experiment: Analgesic activity in formalin-induced nociception Albino Swiss CD-1 mouse model assessed as time spent on licking formalin injected hind paw during inflammatory phase at 5 mg/kg, ip pretreated for 30 mins followed by formalin induction measured after 15 to 30 mins (reference value: 138.5 +/- 8.55 s); assay type: functional
Mus musculus [10] = experiment: Analgesic activity in formalin-induced nociception Albino Swiss CD-1 mouse model assessed as time spent on licking formalin injected hind paw during inflammatory phase at 20 mg/kg, ip pretreated for 30 mins followed by formalin induction measured after 15 to 30 mins (reference value: 138.5 +/- 8.55 s); assay type: functional
Mus musculus [11] = experiment: Sedative activity in ip dosed Albino Swiss CD-1 mouse assessed as effect on locomotor activity by measuring reduction in number of light beam crossings treated for 30 mins measured for next 30 mins; assay type: organism-based; conditions: in vivo, 0.5 h
[12] = Acute toxicity in Albino Swiss CD-1 mouse assessed as mortality at 2000 mg/kg, ip measured after 72 hrs relative to control; assay type: organism-based; conditions: in vivo
[13] = Acute toxicity in Albino Swiss CD-1 mouse assessed as mortality at 250 mg/kg, ip measured after 72 hrs relative to control; assay type: organism-based; conditions: in vivo
[14] = Acute toxicity in Albino Swiss CD-1 mouse assessed as mortality at 500 mg/kg, ip measured after 72 hrs relative to control; assay type: organism-based; conditions: in vivo
[15] = Acute toxicity in Albino Swiss CD-1 mouse assessed as mortality at 1000 mg/kg, ip measured after 72 hrs relative to control; assay type: organism-based; conditions: in vivo
Mus musculus [16] = experiment: Analgesic activity in ip dosed formalin-induced nociception Albino Swiss CD-1 mouse model assessed as reduction in time spent on licking formalin injected hind paw during neurogenic phase pretreated for 30 mins followed by formalin induction measured up to 5 mins; assay type: functional; conditions: Swiss CD-1, ip
[17] = Ulcerogenic activity in Wistar (Krf:(WI) WU) rat assessed as change in gastric mucosa at 25 mg/kg measured after 24 hrs by stereo microscopic analysis; assay type: toxicity, organism-based; conditions: in vivo
Mus musculus [18] = experiment: Analgesic activity in formalin-induced nociception Albino Swiss CD-1 mouse model assessed as time spent on licking formalin injected hind paw during neurogenic phase at 30 mg/kg, ip pretreated for 30 mins followed by formalin induction measured up to 5 mins (reference value: 60.23 +/- 5.12 s); assay type: functional
Mus musculus [19] = experiment: Analgesic activity in formalin-induced nociception Albino Swiss CD-1 mouse model assessed as time spent on licking formalin injected hind paw during inflammatory phase at 30 mg/kg, ip pretreated for 30 mins followed by formalin induction measured after 15 to 30 mins (reference value: 138.5 +/- 8.55 s); assay type: functional

| Compound | Activity [1] | Time (Mus musculus [2]) [s] | LD50 at 24 h [3] [mg/kg] | Time (Mus musculus [4]) [s] | Time (Mus musculus [5]) [s] | Ratio ED50 (Mus musculus [6]) | ED50 (Mus musculus [7]) [mg/kg] | Time (Mus musculus [8]) [s] | Time (Mus musculus [9]) [s] | Time (Mus musculus [10]) [s] | ED50 (Mus musculus [11]) [mg/kg] | mortality at 72 h [12] [%] | mortality at 72 h [13] [%] | mortality at 72 h [14] [%] | mortality at 72 h [15] [%] | ED50 (Mus musculus [16]) [mg/kg] | Activity [17] | Time (Mus musculus [18]) [s] | Time (Mus musculus [19]) [s] |
| --- | --- | --- | --- | --- | --- | --- | --- | --- | --- | --- | --- | --- | --- | --- | --- | --- | --- | --- | --- |
| Cc1ccc(C(=O)C2=C(O)c3ccccc3S(=O)(=O)N2CCCN2CCN(c3ccccc3)CC2)cc1 | Non-Toxic | 51.17 | > 2000 | 59 | 47.67 | 2 - 5 | 4.01 | 55.86 | 62.57 | 35.33 | 35.42 | 0 | – | – | – | – | – | – | – |
| COc1ccccc1N1CCN(C(=O)CN2C(C(=O)c3ccccc3)=C(O)c3ccccc3S2(=O)=O)CC1 | Non-Toxic | 45.63 | > 2000 | 50.71 | 38.29 | 2 - 5 | 7.93 | 63.13 | 77.29 | 55.71 | 32.1 | 0 | – | – | – | – | – | – | – |
| O=C(C1=C(O)c2ccccc2S(=O)(=O)N1CC(=O)N1CCN(c2ccccc2)CC1)c1ccccc1 | Non-Toxic | 34.29 | 500 | 41.17 | 25.83 | 2 - 5 | 8.85 | 68.86 | 81.13 | 49.71 | 31.55 | – | 16.7 | 50 | 83.3 | 13.9 | – | – | – |
| COc1ccccc1N1CCN(CCCN2C(C(=O)c3ccccc3)=C(O)c3ccccc3S2(=O)=O)CC1 | Non-Toxic | 55.71 | > 2000 | 55.83 | 51.4 | 2 - 5 | 9.03 | 68.17 | 92.17 | 35.86 | 33.18 | 0 | – | – | – | – | – | – | – |
| O=C(C1=C(O)c2ccccc2S(=O)(=O)N1CC(=O)N1CCN(c2ncccn2)CC1)c1ccc(Br)cc1 | Non-Toxic | 31.38 | > 2000 | 44.5 | 22.44 | 2 - 5 | 8.25 | 63.75 | 81.63 | 48.6 | 29.89 | 0 | – | – | – | 11.9 | Non-Toxic | – | – |
| O=C(C1=C(O)c2ccccc2S(=O)(=O)N1CC(=O)N1CCN(c2ccccc2)CC1)c1ccc(F)cc1 | Non-Toxic | 32 | 957 | 44.8 | 24.25 | 2 - 5 | 6.24 | 55.29 | 75.78 | 30.67 | 26.15 | 100 | – | 0 | 66.7 | 12.8 | Non-Toxic | – | – |
| CN1C(C(=O)Nc2ccccn2)=C(O)c2ccccc2S1(=O)=O [PIROXICAM] | – | 58.71 | 360 | 61.31 | 59.16 | – | 18.9 | 108.25 | 116.1 | 67.43 | – | – | – | – | – | – | Toxic | 49.75 | 37.57 |
| O=C(C1=C(O)c2ccccc2S(=O)(=O)N1CCCN1CCN(c2ccccc2)CC1)c1ccccc1 | Non-Toxic | 28.25 | > 2000 | 40 | 26.29 | 2 - 5 | 6.18 | 63 | 71.6 | 44.14 | 34.12 | 0 | – | – | – | 11.6 | – | – | – |
| Cc1ccc(C(=O)C2=C(O)c3ccccc3S(=O)(=O)N2CC(=O)N2CCN(c3ccccc3)CC2)cc1 | Non-Toxic | 39.75 | 569 | 44.86 | 31 | 2 - 5 | 7.22 | 46.86 | 90 | 28.86 | 40.34 | – | 0 | 66.7 | 83.3 | 22.8 | Non-Toxic | – | – |
| O=C(C1=C(O)c2ccccc2S(=O)(=O)N1CCCN1CCN(c2cccc(C(F)(F)F)c2)CC1)c1ccccc1 | Non-Toxic | 42.86 | > 2000 | 51.5 | 35.11 | 2 - 5 | 7.14 | 59.17 | 78.5 | 48.6 | 38.41 | 0 | – | – | – | 27 | – | – | – |

— ChEMBL document CHEMBL4316618, “Synthesis and pharmacological evaluation of novel arylpiperazine oxicams derivatives as potent analgesics without ulcerogenicity” (Bioorg Med Chem, 2019)
